Measured values taken from EP3124080A1, “SEMISYNTHETIC BILE ACIDS FOR INJECTION LIPOLYSIS” (Merz Pharma GmbH & Co. KGaA, priority 2015, dated 2017).
Like-named read-outs stand apart in the source and are kept apart here. Marks after values point to notes of the source that are not given here.

What was measured:
[1] = tested on: in vitro matured adipocytes; experiment: alamar blue cell viability assay (adipocytolytic potential), mature adipocytes; format: cell-based; conditions: for Viability Adipocytes (%): 48h incubation, vehicle = 100%
Protocol: (§1) The following experimental setup was used for determination of adipocytolytic potential of test compounds with preadipocytes and mature adipocytes: • Preadipocytes (PromoCell) were seeded in Preadipocyte Growth Medium at 45000 cells/ cm^2 to allow attachment overnight. Cells were cultured at 37°C and 5% CO2 untill postconfluence. Differentiation was started with incubation of cells in Differentiation Medium for 7 days followed by incubation in Nutrition medium for 14 further days. After differentiation process, mature adipocytes were incubated with indicated concentration of indicated triterpenes.
(§2) 6 replicates of each test compound concentration were tested. Each plate included a negative control and a compound interference control (for all concentrations, duplicates).
(§3) Cell viability as surrogate for adipocytolytic potential of compounds were analysed by alamar blue assay. In brief, 20µl of a 0,1mg/ml Resazurin sodium salt (Sigma; R7017-1G) solution was added to each well 48 hrs after compound incubation. The cells were incubated for 90 min at 37°C and 5% CO2 and the resulting conversion of resazurin to resorufin was measured by a fluorescence plate reader at 590 nm. Vehicle controls were set as 100%. IC50-values were analysed using SigmaBlotV13.

[2] = tested on: Preadipocytes (PromoCell); experiment: alamar blue cell viability assay (adipocytolytic potential), preadipocytes; format: cell-based; conditions: for Viability Preadipocytes (%): 48h incubation, vehicle = 100%; for IC50: viability, 48 hrs, read-out: IC50 [µM] Pre-ad ipocytes
Protocol: as §1, §2, §3

adipocytes = experiment: Caspase-Glo 3/7 Assay, apoptosis induction in adipocytes; format: cell-based; conditions: vehicle basal apoptosis = 100%
Protocol: as §1
For analysing the potential of compounds to induce apoptosis the Caspase-Glo® 3/7 Assay was used (Promega) as recommended by the supplier. In brief, 100µl of Caspase Reagent was added to 100µl cell culture medium and cells were incubated at 37°C and 5% CO2 for 1 hr. Luminescence signal was measured with a SynergyH4 plate reader. Vehicle controls were used to define basal apoptosis as 100%. Table 1 Impact on viability of in vitro matured adipocytes after 48h incubation with indicated compound in increasing concentration

inguinal fat pad [3] = experiment: injection into inguinal fat pads of rats: fat pad weight, volume, fat content; format: in vivo, Male Sprague-Dawley rats; conditions: 3 sites 100 µl each, days 1, 7, 14, analysis day 35, mean ±SEM
Protocol: All work was done under sterile extractor hood/luminar airflow working environment. Final solution were filtered through sterile 0.22um Millipore PES membrane syringer filter unit. […].
To 0.4099g Na3PO4 water for injection was added to a final weight of 50 g.
For the highest (2%) concentration, 100 mg of obeticholic acid were added with 2.75 ml of above solution, 112,5 mg of glycerol and finally 2.038 ml of sterile water to make 5 ml solution. Lower concentrations were adjusted accordingly.
Male Sprague-Dawley rats (200-300g of body weight) were used for this study (Vital River Laboratories Animal Ltd., China) and were housed in a temperature (22 ± 3 °C) and humidity (55 ± 15 %) controlled AAALAC accredited facility. Animals were provided with food (Keaoxieli certified Rodent Diet) and sterile water ad libitum. The animals were on a 12-hour light/dark (6:00 am /6:00 pm) cycle and acclimated for 1 week prior to the study. Rats were housed in a plexiglas cage (3 rats per cage).
(§4) After shaving the skin the inguinal area, rats, were injected into the inguinal fat pads (3 injection sites per fat pad for every rat, 100ul/per site). For all groups, 6 rats were injected with sterile vehicle, or obeticholic acid on day 1, day 7 and day 14 in the right pad and left fat pad was intact. For the other 6 rats were injected with sterile vehicle obeticholic acid on day 1, day 7 and day 14 in the left pad and right pad was intact.
Isolated inguinal fat pad volume was measured using YLS - 7 b digit volume measuring instrument (Jinan YiYan Technology Development co., LTD, Shandong, P.R. China) according to manufacturer instructions.
Rats were euthanized and the abdomen was cut and opened. Inguinal fat pads were exposed and a photo was taken. Then inguinal fat pads were isolated, and a gross photo was taken again followed by weighting of the pad. Total fat lipids were extracted from the inguinal fat using a protocol adapted from Folch et al. Fresh fat tissue (1g) was homogenized in 20ml of a 2:1 chloroform-methanol solution. The homogenate was filtered using a fat-free filter paper and funneled into a pre-weighted 50-ml glass vial. Then the previous vial and funnel were washed with an additional 5ml of a 2:1 chloroform-methanol solution. Afterwards 2.5 ml of 0.9% NaCl was added. The lipids were separated by centrifugation at 1,800 g, 10°C for 5 min; the aqueous layer was discarded and the tube was flushed with nitrogen until the lipid pellet was dry. The tube containing the lipid pellet was reweighed, and total lipid extracted per gram of total tissue was calculated.
Results were expressed as mean ± SEM. Statistical analysis was performed using ANOVA on ranks, followed if significant by Mann-Whitney test. The difference was considered significant when p< 0.05.
. Herein, the values representmean ±SEM. *-P<0.05 vs control. Table 5 Effect of obeticholic acid on inguinal fat pad in rats.

inguinal fat pad [4] = experiment: fat histology analysis of injected inguinal fat pads (H&E); format: in vivo, Male Sprague-Dawley rats
Protocol: as §4
Inguinal fat embedded in paraffin were cross-sectioned (5 µm each). For each mouse, a serial section at intervals of 40 to 50 µm was made and one section was collected for every 10 sections. In total, five sections per animal were used for Hematoxylin and eosin (H&E) stain and adipocyte number and size analysis. Histologic examination was performed by well-trained pathologists in a double-blind fashion. Three factors were examined in each sample: the quantity of normal fat, fat necrosis and inflammatory activity. […]. H&E staining was used in evaluation of the inflammatory status.

[5] = Adipocyte, viability, 48 hrs, read-out: IC50 [µM] Adipocytes
[6] = 48 h, read-out: Viability Preadipocytes (%)

C[C@H](CCC(=O)O)[C@H]1CC[C@H]2[C@@H]3CC[C@@H]4C[C@H](O)CC[C@]4(C)[C@H]3C[C@H](O)[C@]12C [Deoxycholic acid]
Viability Adipocytes (%) ([1]; 10 µM): 106.98%
Viability Adipocytes (%) ([1]; 50 µM): 95.61%
Viability Adipocytes (%) ([1]; 100 µM): 94.30%
Viability Adipocytes (%) ([1]; 300 µM): 22.06%
Viability Adipocytes (%) ([1]; 600 µM): 0.11%
IC50 ([1]; Adipocyte, read-out: concentration required to achieve 50%-decrease in vitality of adipocytes): 200 µM
IC50 [1, 5]: 244 µM
Viability Preadipocytes (%) ([2]; 10 µM): 96.22%
Viability Preadipocytes (%) ([2]; 50 µM): 95.61%
Viability Preadipocytes (%) ([2]; 100 µM): 98.03%
Viability Preadipocytes (%) ([2]; 300 µM): 26.08%
Viability Preadipocytes (%) ([2]; 600 µM): 0.00%
IC50 [2]: 232 µM

CC[C@H]1[C@@H](O)[C@@H]2[C@H](CC[C@]3(C)[C@@H]([C@H](C)CCC(=O)O)CC[C@@H]23)[C@@]2(C)CC[C@@H](O)C[C@@H]12 [Obeticholic acid, (3α,5β,6α,7α)-6-ethyl-3,7-dihydroxycholan-24-oic acid]
Viability Adipocytes (%) ([1]; 100 µM): 49.17%
viability at 10 µM ([1]; Adipocyte, 48 h, read-out: Viability Adipocytes (%), 10 µM, 48h incubation, vehicle = 100%): 101%
viability at 50 µM ([1]; Adipocyte, 48 h, read-out: Viability Adipocytes (%), 50 µM, 48h incubation, vehicle = 100%): 89.6%
viability at 100 µM ([1]; Adipocyte, 48 h, read-out: Viability Adipocytes (%), 100 µM, 48h incubation, vehicle = 100%): ~50%
viability at 300 µM ([1]; Adipocyte, 48 h, read-out: Viability Adipocytes (%), 300 µM, 48h incubation, vehicle = 100%): 0.29%
IC50 [1, 5]: 93.9 µM
viability at 10 µM [2, 6]: 93%
viability at 50 µM [2, 6]: 83.1%
viability at 100 µM [2, 6]: 21.4%
viability at 300 µM [2, 6]: 0.41%
IC50 [2]: 87.2 µM
Apoptosis Adipocytes (%) (adipocytes; 50 µM, 6 hrs): 132.28%
Apoptosis Adipocytes (%) (adipocytes; 50 µM, 24 hrs): 146.44%
Apoptosis Adipocytes (%) (adipocytes; 100 µM, 6 hrs): 503.28%
Apoptosis Adipocytes (%) (adipocytes; 100 µM, 24 hrs): 180.88%
Apoptosis Adipocytes (%) (adipocytes; 300 µM, 6 hrs): 1164.30%
Apoptosis Adipocytes (%) (adipocytes; 300 µM, 24 hrs): 779.64%
Inguinal fat pad fat content difference to contralateral (sham) pad (g) N=8 (inguinal fat pad [3]; 0.5 % solution): -0.169±0.02* g
Inguinal fat pad weight difference to contralateral (sham) pad (g) N=12 (inguinal fat pad [3]; 0.5 % solution): -0.192±0.04* g
Inguinal fat pad fat content difference to contralateral (sham) pad (g) N=8 (inguinal fat pad [3]; 1 % solution): -0.387±0.04* g
Inguinal fat pad weight difference to contralateral (sham) pad (g) N=12 (inguinal fat pad [3]; 1 % solution): -0.352±0.03* g
Inguinal fat pad fat content difference to contralateral (sham) pad (g) N=8 (inguinal fat pad [3]; 2 % solution): -0.523±0.05* g
Inguinal fat pad weight difference to contralateral (sham) pad (g) N=12 (inguinal fat pad [3]; 2 % solution): -0.526±0.07* g
inflammation (histology) (inguinal fat pad [4]; 0.5 % solution injected into inguinal fat pad): not
fat necrosis as measured by histology (inguinal fat pad [4]; 0.5, 1 and 2 % solutions): not affected
normal fat content as measured by histology (inguinal fat pad [4]; 0.5, 1 and 2 % solutions): not affected
inflammation (histology) (inguinal fat pad [4]; 1 % solution injected into inguinal fat pad): not
inflammation (histology) (inguinal fat pad [4]; 2 % solution injected into inguinal fat pad): increase in inflammation
